Measured values reported in US5491135A (priority 1993, dated 1996).
Values joined by “and” are separate entries in the source; they are usually repeats but may differ in a detail not shown here. Equal values may be shown once. Read-outs that look alike come from different tables or passages of the source.

Key:
flaviviruses = assay: Antiviral test of 2-dGlc; type: cell-based; settings: alone
simian varicella virus = assay: Simian varicella virus infection in African green monkeys; type: in vivo, African green monkey; settings: for Viremia, Mean PFU: mg/kg/d i.v.
Protocol: Fifteen African green monkeys were weighed and bled for clinical chemistry hematology baselines. […] Each of the 15 monkeys were infected with simian varicella virus by intratracheal inoculation of 3.7×10^4 plaque forming units (PFU) of simian varicella virus. […] Control monkeys, service as infection controls, received twice daily intravenous injections of phosphate buffered saline administered at 1.0 ml/kg of body weight. A second group of three monkeys received PALA at 50 mg/kg/day given by intravenous bolus injection into the saphenous vein. A third group was given a lower dose of PALA at 20 mg/kg/day administered in a similar manner. Acyclovir treatment was administered at a subeffective dose of 10 mg/kg/day also given as intravenous bolus injection into the saphenous vein. A fifth group of three monkeys received a combined treatment of PALA at 20 mg/kg/day and acyclovir at 10 mg/kg/day. The drugs were injected into opposite veins at each time of treatment.
Drug solutions were prepared daily prior to treatment. Treatment was begun 24 hours after virus inoculation. PALA was provided as a solution in vials containing 5 ml at 100 mg/ml. The contents of three vials were pooled and seven ml of the pooled drug diluted to 28 ml to give 25 mg/ml. Five ml of this solution was diluted to […] to give 10 mg/ml. Drug was administered twice daily resulting in total daily doses of 50 or 20 mg/kg/day.
Acyclovir received as a gift from Burroughs Wellcome was weighed out as a 200 mg quantity. This was diluted with 5 ml of PBS and pH adjusted to 11.0 with 1N NaOH to effect solution. This was subsequently diluted to 40 ml to give a solution of 5 mg/ml and sterilized by filtration. Again, 1 ml per kg of body weight was administered by intravenous injection twice daily resulting in a dose of 10 mg/kg/day.
The clinical course of simian varicella infection was followed by collection of 2 ml of blood in heparin on day 2, 5, 7, 9 and 11 post-inoculation. The lymphocytes in the 2 ml specimen were separated on ficol-hypaque gradients, washed twice in RPMI-1640 medium and suspended in 10 ml of this medium. The 10 ml volume was divided between two 25 cm^2 tissue culture flasks seeded 24 hours earlier with Vero cells. After 5-7 days incubation, the culture fluids were discarded from the flasks and the cell monolayer fixed with methanol and stained with methylene blue-basic fuchsin. When dried the number of plaques in each flask were counted and the mean number of plaques between the two paired flasks were determined and expressed as a quantitation of viremia per ml of blood.
Rash was evaluated daily using a subjective scoring of severity from ± to 4+. A ± score indicates less than 10 vesicles seen on the skin of the monkey while 4+ indicates numerous vesicles covering the majority of the body surface. General clinical condition was assessed daily and anorexia noted by counting the number of food biscuits consumed daily. Monkeys dying during the course of the experiment were necropsied and simian varicella was determined as the cause of death based on the typical pathology. Baseline hematology and clinical chemistry tests were performed at three days before virus inoculation and again on day 0, immediately before virus inoculation. Following inoculation of simian varicella virus blood was taken for hematology and clinical chemistry tests at 3, 7, 9 and 11 days.
At 14 and 21 days after virus inoculation, blood was taken and the serum separated for quantitation of antibody. Antibody titers were obtained in a serum neutralization test employing a plaque reduction assay. The antibody titer expressed is the dilution of serum resulting in an 80 percent reduction in the number of plaques from that number occurring in control cultures without added serum.

herpesvirus = settings: cited from earlier work
[1] = system: respiratory syncytial virus (RSV); assay: RSV infection in cotton rats, lung titre; type: in vivo, cotton rat
Excerpt: 1. 50 to 100 g cotton rats of either sex inoculated i.n. with RS A2 (pool 8-28-92) on day 0.
2. On day +1 animals were given placebo or PALA as follows:
3. All animals killed on day +4 and their lungs tested for RSV levels.

[2] = PALA 50, rifampicin 10 or both, mg/kg/day i.v.
[3] = day 10, PALA 50, rifampicin 10 mg/kg/d or both

O=CC[C@@H](O)[C@H](O)[C@H](O)CO [2-dGlc, 2-deoxy-D-glucose]
effect against flaviviruses (flaviviruses): no effect

Nc1nc2c(ncn2COCCO)c(=O)[nH]1 [Acyclovir, reference compound]
effect on rash / viremia (simian varicella virus; PALA 20, Acyclovir 10 or both, mg/kg/day i.v.): no effect in moderating viremia | thrombocytopenia on day 11 (simian varicella virus; PALA 50 or Acyclovir 10 mg/kg/day): two monkeys | Viremia, Mean PFU (simian varicella virus; day 7, PALA 20, Acyclovir 10 or both): > 1000 PFU and 504 PFU | Viremia, Mean PFU (simian varicella virus; day 11, PALA 20, Acyclovir 10 or both): 0 PFU

O=C(O)CP(=O)(O)O [PAA, phosphonoacetic acid, reference compound]
antiherpesvirus activity (herpesvirus): selective antiherpesvirus agent

NC(=O)c1ncn([C@@H]2O[C@H](CO)[C@@H](O)[C@H]2O)n1 [RIBAVIRIN, reference compound]
RSV lung titre ([1]; ribavirin 40 mg/kg, alone or + PALA 3 mg/kg, individual animal): 3.4 LOG10 and 2.9 LOG10 and 3.5 LOG10 | RSV lung titre, mean (SD) ([1]; ribavirin 40 mg/kg/day, alone or + PALA 3): 3.3 (0.3) LOG10 /G Lung

CO[C@H]1/C=C/O[C@@]2(C)Oc3c(C)c(O)c4c(O)c(c(/C=N/N5CCN(C)CC5)c(O)c4c3C2=O)NC(=O)/C(C)=C\C=C\[C@H](C)[C@H](O)[C@@H](C)[C@@H](O)[C@@H](C)[C@H](OC(C)=O)[C@@H]1C [Rifampicin, reference compound]
lesion development (vaccinia virus; [2]): appreciable skin lesions | virus titers in skin (vaccinia virus; [2]): Higher titers | Weight (vaccinia virus; day 0, PALA 50, rifampicin 10 mg/kg/d or both): 5.2 kg and 2.6 kg and 4.2 kg | Vaccinia Lesion Score, group mean (vaccinia virus; day 3, PALA 50, rifampicin 10 mg/kg/d or both): 0.4 | Vaccinia Lesion Score, group mean (vaccinia virus; day 6, PALA 50, rifampicin 10 mg/kg/d or both): 1.2 | Vaccinia Lesion Score (vaccinia virus; day 6, PALA 50, rifampicin 10 mg/kg/d or both, per monkey): 1.6 and 0.7 and 1.4 | Vaccinia Lesion Score, group mean (vaccinia virus; day 7, PALA 50, rifampicin 10 mg/kg/d or both): 1.7 | Vaccinia Lesion Score, group mean (vaccinia virus; day 8, PALA 50, rifampicin 10 mg/kg/d or both): 1.3 | Vaccinia Lesion Score, group mean (vaccinia virus; day 9, PALA 50, rifampicin 10 mg/kg/d or both): 1.2 | Vaccinia Lesion Score, group mean (vaccinia virus; [3]): 1.6 | Weight (vaccinia virus; [3]): 4.6 kg and 2.4 kg and 3.8 kg | Vaccinia Lesion Score, group mean (vaccinia virus; day 13, PALA 50, rifampicin 10 mg/kg/d or both): 0.9 | Weight (vaccinia virus; day 14, PALA 50, rifampicin 10 mg/kg/d or both): 4.6 kg and 2.4 kg and 3.8 kg | Weight (vaccinia virus; day 21, PALA 50, rifampicin 10 mg/kg/d or both): 4.8 kg and 2.6 kg and 4.0 kg | signs of toxicity (vaccinia virus; except one monkey at PALA 125 mg/kg bolus): No appreciable signs of toxicity | Titer of vaccinia virus in skin biopsy (vaccinia virus; head prints day 6, PALA 50, rifampicin 10 mg/kg/d or both): 1.5 × 10^7 PFU/ml and 1.2 × 10^5 PFU/ml and 1.1 × 10^5 PFU/ml
